{
  "source": "paper PMC10460844",
  "about": "“Real‐Time Monitoring of Multitarget Antimicrobial Mechanisms of Peptoids Using Label‐Free Imaging with Optical Diffraction Tomography” (Advanced Science, 2023)",
  "test_system": "E. coli ATCC 25922",
  "format": "cell-based",
  "conditions": "ODT, 30 min treatment; buforin-II 25 µM, melittin 25 µM, 29 4 × MIC",
  "experimental": "Three‐dimensional (3D) optical diffraction tomography (ODT) and fluorescence images of live bacterial cells were obtained using an HT‐2H Mach−Zehnder interferometric microscope, combining both ODT and fluorescence imaging into a single unit (Tomocube, Daejon, South Korea). 3D Fluorescence imaging was carried out, using three light sources (385, 470, and 565 nm) via serial fluorescence image acquisition in multiple planes followed by 3D deconvolution. 3D correlative imaging, using a combination of ODT and fluorescence imaging was performed using commercial software (TomoStudioTM, Tomocube) as described previously^[ [23c] ^] Bacterial cells were grown overnight and diluted (≈10^7 CFU mL^−1) in cation‐adjusted MHB2 media. The cells were loaded onto 50 mm imaging dishes with a #1.5H glass coverslip bottom (TomoDish, Tomocube) that were precoated with 0.01% (w/v) poly‐L‐lysine (Sigma‐Aldrich) in water. After 30 min incubation at room temperature, the coverslips were washed twice with PBS (pH 7.4) to remove unattached cells, and the media was replaced with PBS for the duration of the imaging. To monitor the change in bacterial morphology, bacterial cells were treated with a peptoid (or with control AMPs) in PBS containing FM4‐64 (10 µg mL^−1) or propidium iodide (10 µg mL^−1). To analyze 3D refractive index (RI) tomograms, individual bacteria were captured using ODT equipped with a digital micromirror device (Tomocube). In more detail, the light scattered by the bacterial cells was collected by an objective lens (NA = 1.2, water dipping, UPLSAPO 60XW, Olympus) and recorded by a digital image sensor (CMOS camera, FL3‐U313Y3M‐C, FLIR Systems). Using a field retrieval algorithm, the amplitude and phase images were retrieved from the obtained multiple holograms, and then the 3D RI distribution was determined.\nThe analysis tool in the TomoStudio software (Tomocube) was used to measure specific values, including the refractive index (RI) and the cell volume of bacteria. These values were determined from RI increments (RII) of 0.190 fL pg^−1, which is known as a representative value and was assumed to be the same for most proteins.^[ [46] ^]",
  "note": "Square brackets hold non-standard residues; d marks the D form. Peptide text beside a SMILES is read from it. Gly(N(CH2)2(3-indolyl)) = O=C(O)CNCCc1c[nH]c2ccccc12; Nspe = C[C@H](NCC(=O)O)c1ccccc1; Nlys = NCCCCNCC(=O)O",
  "data": [
    {"smiles": "C[C@@H](c1ccccc1)N(CC(=O)N(CCCCN)CC(=O)N(CCc1c[nH]c2ccccc12)CC(=O)N(CCc1c[nH]c2ccccc12)CC(N)=O)C(=O)CN(CCCCN)C(=O)CN(CCCCN)C(=O)CN(C(=O)CN(C(=O)CN(CCCCN)C(=O)CN(C(=O)CN(C(=O)CNCCCCN)[C@@H](C)c1ccccc1)[C@@H](C)c1ccccc1)[C@@H](C)c1ccccc1)[C@@H](C)c1ccccc1", "note": "[peptoid 29] (H-[Nlys][Nspe][Nspe][Nlys][Nspe][Nspe][Nlys][Nlys][Nspe][Nlys][Gly(N(CH2)2(3-indolyl))][Gly(N(CH2)2(3-indolyl))]-NH2)", "values": [
      {"measurement": "change of cell volume", "result": "notable reduction in cell volume"},
      {"measurement": "change of mean RI value versus control cells", "result": "significantly increased mean RI values"}
    ]}
  ]
}
